System: Aphis craccivora
Experiment: Insecticidal activity against Aphis craccivora (cowpea aphid) infested tender soybean shoots exposed to 500 mg/L compound solution assessed as insect mortality measured 24 hr post compound treatment (reference value: 4.1%)
Type: functional

SMILES	mortality [%]
Cc1ccc(C2N3CCN(Cc4ccc(Cl)nc4)C3=C([N+](=O)[O-])C(c3ccco3)C2(C#N)C#N)c(F)c1 (configuration not stated)	100
N#CC1(C#N)C(c2ccco2)C([N+](=O)[O-])=C2N(Cc3ccc(Cl)nc3)CCN2C1c1cccc(F)c1F (configuration not stated)	48.8
N#CC1(C#N)C(c2ccco2)C([N+](=O)[O-])=C2N(Cc3ccc(Cl)nc3)CCN2C1c1ccc(OC(F)(F)F)c(Cl)c1 (configuration not stated)	0
N#CC1(C#N)C(c2ccco2)C([N+](=O)[O-])=C2N(Cc3ccc(Cl)nc3)CCN2C1c1ccc(C(F)(F)F)c(F)c1 (configuration not stated)	96.8
N#CC1(C#N)C(c2ccco2)C([N+](=O)[O-])=C2N(Cc3ccc(Cl)nc3)CCN2C1c1ccc(F)cc1 (configuration not stated)	64.21
Cc1ccc(C2N3CCN(Cc4ccc(Cl)nc4)C3=C([N+](=O)[O-])C(c3ccco3)C2(C#N)C#N)cc1 (configuration not stated)	0
Cc1ccc(F)c(C2N3CCN(Cc4ccc(Cl)nc4)C3=C([N+](=O)[O-])C(c3ccco3)C2(C#N)C#N)c1 (configuration not stated)	73.9
N#CC1(C#N)C(c2ccco2)C([N+](=O)[O-])=C2N(Cc3ccc(Cl)nc3)CCN2C1c1ccc(Cl)cc1Cl (configuration not stated)	85.9
N#CC1(C#N)C(c2ccco2)C([N+](=O)[O-])=C2N(Cc3ccc(Cl)nc3)CCN2C1c1cccc(Br)c1 (configuration not stated)	75.8
N#CC1(C#N)C(c2ccco2)C([N+](=O)[O-])=C2N(Cc3ccc(Cl)nc3)CCN2C1c1ccc(Cl)cc1F (configuration not stated)	56.7
N#CC1(C#N)C(c2ccco2)C([N+](=O)[O-])=C2N(Cc3ccc(Cl)nc3)CCN2C1c1ccc(Br)cc1Cl (configuration not stated)	0
N#CC1(C#N)C(c2ccco2)C([N+](=O)[O-])=C2N(Cc3ccc(Cl)nc3)CCN2C1c1cccc([N+](=O)[O-])c1 (configuration not stated)	0
CN(C)c1ccc(C2N3CCN(Cc4ccc(Cl)nc4)C3=C([N+](=O)[O-])C(c3ccco3)C2(C#N)C#N)cc1 (configuration not stated)	0
N#Cc1cccc(C2N3CCN(Cc4ccc(Cl)nc4)C3=C([N+](=O)[O-])C(c3ccco3)C2(C#N)C#N)c1 (configuration not stated)	0
Cc1ccc(F)cc1C1N2CCN(Cc3ccc(Cl)nc3)C2=C([N+](=O)[O-])C(c2ccco2)C1(C#N)C#N (configuration not stated)	0
N#CC1(C#N)C(c2ccco2)C([N+](=O)[O-])=C2N(Cc3ccc(Cl)nc3)CCN2C1c1cc(C(F)(F)F)ccc1F (configuration not stated)	100
N#CC1(C#N)C(c2ccco2)C([N+](=O)[O-])=C2N(Cc3ccc(Cl)nc3)CCN2C1c1ccc(Cl)cc1C(F)(F)F (configuration not stated)	100
N#CC1(C#N)C(c2ccco2)C([N+](=O)[O-])=C2N(Cc3ccc(Cl)nc3)CCN2C1c1ccc([N+](=O)[O-])cc1 (configuration not stated)	0
N#CC1(C#N)C(c2ccco2)C([N+](=O)[O-])=C2N(Cc3ccc(Cl)nc3)CCN2C1c1ccc(OC(F)(F)F)cc1 (configuration not stated)	0
N#Cc1ccc(C2N3CCN(Cc4ccc(Cl)nc4)C3=C([N+](=O)[O-])C(c3ccco3)C2(C#N)C#N)cc1 (configuration not stated)	0
COc1ccc(C2N3CCN(Cc4ccc(Cl)nc4)C3=C([N+](=O)[O-])C(c3ccco3)C2(C#N)C#N)cc1 (configuration not stated)	0
N#CC1(C#N)C(c2ccco2)C([N+](=O)[O-])=C2N(Cc3ccc(Cl)nc3)CCN2C1c1ccccc1 (configuration not stated)	0

System: Aphis craccivora
Experiment: Insecticidal activity against Aphis craccivora (cowpea aphid) infested tender soybean shoots exposed to compound solution assessed as insect mortality measured 24 hr post compound treatment (reference value: 4.1%)
Type: functional

SMILES	LC50 [µM]
Cc1ccc(C2N3CCN(Cc4ccc(Cl)nc4)C3=C([N+](=O)[O-])C(c3ccco3)C2(C#N)C#N)c(F)c1 (configuration not stated)	5.52
N#CC1(C#N)C(c2ccco2)C([N+](=O)[O-])=C2N(Cc3ccc(Cl)nc3)CCN2C1c1ccc(C(F)(F)F)c(F)c1 (configuration not stated)	87.4
N#CC1(C#N)C(c2ccco2)C([N+](=O)[O-])=C2N(Cc3ccc(Cl)nc3)CCN2C1c1cc(C(F)(F)F)ccc1F (configuration not stated)	113
N#CC1(C#N)C(c2ccco2)C([N+](=O)[O-])=C2N(Cc3ccc(Cl)nc3)CCN2C1c1ccc(Cl)cc1C(F)(F)F (configuration not stated)	87.2
O=[N+]([O-])/N=C1\NCCN1Cc1ccc(Cl)nc1 [IMIDACLOPRID]	35

— ChEMBL document CHEMBL3045280, “Designing Tetrahydroimidazo[1,2-a]pyridine derivatives via catalyst-free Aza-Diels-Alder reaction (ADAR) and their insecticidal evaluation” (2010)
